Results from US20260166039A1 (SCHRÖDINGER, INC., priority 2022, published 2026).
Where two headings read alike, the source gives them in different places.

Key:
[1] = tested on: phosphorylation of Cdc2 Y15 (Wee1 substrate) in A427 cells; test: Phosphorylated Cdc2 MSD Electrochemiluminescence Assay; assay type: cell-based; conditions: Homo sapiens
How it was run: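 A427 cells (RPMI 1640, 10% FBS) treated 20 h after plating with 3-fold serial compound dilutions, in duplicate, 37 °C, 5% CO2; total incubation 6 h. Lysate Cdc2 pY15 read by MSD electrochemiluminescence sandwich immunoassay; % remaining signal normalised to DMSO (high) and reference Wee1 inhibitor (low) controls.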

[2] = target: T1, Wee1 kinase domain (Homo sapiens, UniProt P30291); test: Wee1 Kinase Biochemical Assay (ADP-Glo); conditions: 15 uM ATP
T1 construct: Wee1 kinase domain was purchased from Carna (catalog #05-177); purchased Carna 05-177
How it was run: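 Carna Wee1 kinase domain at 1 nM, with 15 uM ATP and 2 ng/mL poly(Lys,Tyr 4:1) substrate in 40 mM Tris-HCl, 20 mM MgCl2, 0.1 mg/mL BSA, 2 mM DTT, run 4 h at 25° C. ADP formation read by ADP-Glo luminescence. Percent inhibition normalised to DMSO and saturating-inhibitor controls.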

[3] = A-427, class symbols, read-out: A427 pCDC2 MSD IC50
[4] = class symbols, 1 nM Wee1 enzyme, 4 hours at 25° C.

T1 sequence (P30291 299-569 limits assumed): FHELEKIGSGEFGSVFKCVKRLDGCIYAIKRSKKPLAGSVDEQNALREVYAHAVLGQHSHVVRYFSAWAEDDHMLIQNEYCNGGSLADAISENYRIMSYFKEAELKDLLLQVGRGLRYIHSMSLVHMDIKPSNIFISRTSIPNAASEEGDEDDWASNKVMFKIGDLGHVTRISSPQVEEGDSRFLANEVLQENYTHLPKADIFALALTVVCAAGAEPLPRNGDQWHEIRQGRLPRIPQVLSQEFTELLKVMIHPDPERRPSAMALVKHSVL

Row | Structure (SMILES) | IC50 ([1]; A-427, pCDC2 MSD) | IC50 ([2]; Wee1 kinase domain, ADP-Glo) | IC50 [1, 3] | IC50 [2, 4]
1 | CN1CCC[C@H]1c1ccc(Nc2ncc3c(n2)N(c2cccc(N=S(C)(C)=O)n2)[C@@H]2CC(C)(C)OC[C@]32C)cc1 (single isomer, unassigned) [Example 126] | < 100 nM | < 10 nM | – | –
2 | CC1(C)C[C@H]2N(c3cccc(N4CCCC4=O)n3)c3nc(Nc4ccc(C5CNC5)cc4)ncc3[C@@]2(C)CO1 [Example 662, 1-(6-((4bR,8aR)-2-((4-(azetidin-3-yl)phenyl)amino)-4b,7,7-trimethyl-4b,7,8,8a-tetrahydropyrano[3′,4′:4,5]pyrrolo[2,3-d]pyrimidin-9(5H)-yl)pyridin-2-yl)pyrrolidin-2-one] | – | – | 100 to 1000 nM | < 10 nM
3 | CN1CCC(n2cc(Nc3ncc4c(n3)N(c3cccc(N=S(C)(C)=O)n3)[C@@H]3CC(C)(C)OC[C@]43C)cn2)CC1 (single isomer, unassigned) [Example 102] | 100 to 1000 nM | < 10 nM | – | –
4 | CN(C)Cc1cccc(N2c3nc(Nc4ccc(C(C)(C)C(=O)O)cc4)ncc3[C@@]3(C)COC(C)(C)C[C@@H]23)n1 [Example 611] | – | – | 1000 to 10000 nM | < 10 nM
5 | CN1CC[C@H](Oc2ccc(Nc3ncc4c(n3)N(c3cccc(N5CCOC5=O)n3)[C@@H]3CC(C)(C)OC[C@]43C)cc2)C1 [Example 615, 3-(6-((4bR,8aR)-4b,7,7-trimethyl-2-((4-(((S)-1-methylpyrrolidin-3-yl)oxy)phenyl)amino)-4b,7,8,8a-tetrahydropyrano[3′,4′:4,5]pyrrolo[2,3-d]pyrimidin-9(5H)-yl)pyridin-2-yl)oxazolidin-2-one] | – | – | < 100 nM | < 10 nM
6 | C[C@H]1CCC(=O)N1c1cccc(N2c3nc(Nc4ccc(C5CN(C)C5)cc4)ncc3[C@@]3(C)COC(C)(C)C[C@@H]23)n1 (single isomer, unassigned) [Example 727] | – | – | < 100 nM | < 10 nM
7 | C[C@@H]1COC(=O)N1c1cccc(N2c3nc(Nc4ccc(N5CCN(C)CC5)cc4)ncc3[C@@]3(C)COC(C)(C)C[C@@H]23)n1 (single isomer, unassigned) [Example 589] | – | – | 100 to 1000 nM | < 10 nM
8 | CNCc1cccc(N2c3nc(Nc4ccc(N5C(=O)CC[C@H]5C)cc4)ncc3[C@@]3(C)COC(C)(C)C[C@@H]23)n1 (single isomer, unassigned) [Example 30] | 100 to 1000 nM | < 10 nM | – | –
9 | CNCc1cccc(N2c3nc(Nc4ccc(-n5ccnc5)c(F)c4)ncc3[C@@]3(C)COC(C)(C)C[C@@H]23)n1 (single isomer, unassigned) [Example 466] | – | – | 1000 to 10000 nM | < 10 nM
10 | Cn1cc(C(=O)Nc2ncc3c(n2)N(c2cccc(N=S(C)(C)=O)n2)[C@@H]2CC(C)(C)OC[C@]32C)cn1 (single isomer, unassigned) [Example 408] | – | – | 1000 to 10000 nM | < 10 nM
11 | C[C@H]1COC(=O)N1c1cccc(N2c3nc(Nc4ccc(N5CC6(CN(C)C6)C5)cc4)ncc3[C@@]3(C)COCC[C@@H]23)n1 (single isomer, unassigned) [Example 784] | – | – | 100 to 1000 nM | < 10 nM
12 | CN1CC(c2ccc(Nc3ncc4c(n3)N(c3cccc(N=S5(=O)CCCC5)n3)[C@@H]3CC(C)(C)OC[C@]43C)cc2)C1 (single isomer, unassigned) [Example 754] | – | – | < 100 nM | < 10 nM
13 | CN1C[C@H]2C[C@@H]1CN2c1ccc(Nc2ncc3c(n2)N(c2cccc(N=S(C)(C)=O)c2)[C@@H]2CC(C)(C)OC[C@]32C)cc1 [Example 713, dimethyl((3-((4bR,8aR)-4b,7,7-trimethyl-2-((4-((1R,4R)-5-methyl-2,5-diazabicyclo[2.2.1]heptan-2-yl)phenyl)amino)-4b,7,8,8a-tetrahydropyrano[3′,4′:4,5]pyrrolo[2,3-d]pyrimidin-9(5H)-yl)phenyl)imino)-16-sulfanone] | – | – | 100 to 1000 nM | < 10 nM
14 | C[C@@H]1CN(c2ccc(Nc3ncc4c(n3)N(c3cccc(N=S(C)(C)=O)n3)[C@@H]3CC(C)(C)OC[C@]43C)cc2)CCN1C (single isomer, unassigned) [Example 499] | – | – | < 100 nM | < 10 nM
15 | CN1CC(n2cc(Nc3ncc4c(n3)N(c3cccc(N=S(C)(C)=O)n3)[C@@H]3CC(C)(C)OC[C@]43C)cn2)C1 (single isomer, unassigned) [Example 207] | 100 to 1000 nM | < 10 nM | – | –
16 | CNCc1cccc(N2c3nc(Nc4ccc([C@@H]5CCNC5)cc4)ncc3[C@@]3(C)COC(C)(C)C[C@@H]23)n1 (single isomer, unassigned) [Example 454] | – | – | 100 to 1000 nM | < 10 nM
17 | Cc1cc(Nc2ncc3c(n2)N(c2cccc(N4C(=O)OC[C@@H]4C)n2)[C@@H]2CC(C)(C)OC[C@]32C)ccc1[C@@H]1CCNC1 (single isomer, unassigned) [Example 269] | 100 to 1000 nM | < 10 nM | – | –
18 | CC1(C)C[C@H]2N(c3cccc(N=S(C)(C)=O)n3)c3nc(Nc4ccc5nccn5c4)ncc3[C@@]2(C)CO1 (single isomer, unassigned) [Example 504] | – | – | 100 to 1000 nM | < 10 nM

Row | Structure (SMILES) | IC50 ([1]; A-427, pCDC2 MSD) | IC50 ([2]; Wee1 kinase domain, ADP-Glo) | IC50 [1, 3] | IC50 [2, 4]
19 | CN[C@@H](C)c1cccc(N2c3nc(Nc4ccc(N5C[C@@H]6C[C@H]5CO6)cc4)ncc3[C@@]3(C)COC(C)(C)C[C@@H]23)n1 (single isomer, unassigned) [Example 581] | – | – | 100 to 1000 nM | < 10 nM
20 | Cc1cc(Nc2ncc3c(n2)N(c2cccc(N=S(C)(C)=O)n2)[C@@H]2CC(C)(C)OC[C@]32C)ccc1[C@@H]1CCNC1 (single isomer, unassigned) [Example 143] | 100 to 1000 nM | < 10 nM | – | –
21 | CC1(C)C[C@H]2N(c3ccc4c(n3)[C@](C)(N)CC4)c3nc(Nc4ccc(N5CCOCC5)cc4)ncc3[C@@]2(C)CO1 (single isomer, unassigned) [Example 564] | – | – | < 100 nM | < 10 nM
22 | CC1(C)C[C@H]2N(c3cccc(N=S(C)(C)=O)n3)c3nc(Nc4cnn(C(F)F)c4)ncc3[C@@]2(C)CO1 (single isomer, unassigned) [Example 487] | – | – | 100 to 1000 nM | < 10 nM
23 | CNCc1cccc(N2c3nc(Nc4ccc(C5CCN(C)CC5)c(C)c4)ncc3[C@@]3(C)COC(C)(C)C[C@@H]23)n1 (single isomer, unassigned) [Example 72] | 100 to 1000 nM | < 10 nM | – | –
24 | CN1CC[C@@H](Oc2ccc(Nc3ncc4c(n3)N(c3cccc(N5CCOC5=O)n3)[C@@H]3CC(C)(C)OC[C@]43C)cc2)C1 [Example 624, 3-(6-((4bR,8aR)-4b,7,7-trimethyl-2-((4-(((R)-1-methylpyrrolidin-3-yl)oxy)phenyl)amino)-4b,7,8,8a-tetrahydropyrano[3′,4′:4,5]pyrrolo[2,3-d]pyrimidin-9(5H)-yl)pyridin-2-yl)oxazolidin-2-one] | – | – | 100 to 1000 nM | < 10 nM
25 | CN[C@@H]1CCc2ccc(N3c4nc(Nc5ccc(N6CCOCC6)cc5)ncc4[C@@]4(C)COC(C)(C)C[C@@H]34)nc21 (single isomer, unassigned) [Example 553] | – | – | 100 to 1000 nM | < 10 nM
26 | CNCc1cccc(N2c3nc(Nc4ccc([C@@]5(C)CCN(C)C5=O)cc4)ncc3[C@@]3(C)COC(C)(C)C[C@@H]23)n1 (single isomer, unassigned) [Example 80] | 100 to 1000 nM | < 10 nM | – | –
27 | Cc1cc(Nc2ncc3c(n2)N(c2cccc(N4C(=O)OC[C@@H]4C)n2)[C@@H]2CC(C)(C)OC[C@]32C)ccc1[C@H]1CCNC1 (single isomer, unassigned) [Example 267] | 100 to 1000 nM | < 10 nM | – | –
28 | CN1CCC(c2ccc(Nc3ncc4c(n3)N(c3cccc(N=S(C)(C)=O)n3)[C@@H]3CC(C)(C)OC[C@]43C)cc2F)CC1 (single isomer, unassigned) [Example 177] | 100 to 1000 nM | < 10 nM | – | –
29 | CNCc1cccc(N2c3nc(Nc4ccc(N5CCOCC5)c(C)c4)ncc3[C@@]3(C)COC(C)(C)C[C@@H]23)n1 (single isomer, unassigned) [Example 26] | 100 to 1000 nM | < 10 nM | – | –
30 | CN1CC[C@H]2CN(c3ccc(Nc4ncc5c(n4)N(c4cccc(C(C)(C)O)n4)[C@@H]4CC(C)(C)OC[C@]54C)cc3)C[C@H]21 (single isomer, unassigned) [Example 439] | – | – | 100 to 1000 nM | < 10 nM
31 | CC1(C)C[C@H]2N(c3cccc(N=S(C)(C)=O)n3)c3nc(NC(=O)[C@H]4C[C@@H]4c4cccnc4)ncc3[C@@]2(C)CO1 (single isomer, unassigned) [Example 402] | – | – | 1000 to 10000 nM | 10 to 100 nM
32 | CC1(C)C[C@H]2N(c3cccc(N=S(C)(C)=O)n3)c3nc(Nc4ccc(N5C[C@@H]6C[C@H]5CO6)cc4)ncc3[C@@]2(C)CO1 (single isomer, unassigned) [Example 497] | – | – | 100 to 1000 nM | < 10 nM
33 | CN1C[C@@H]2C[C@H]1CN2c1ccc(Nc2ncc3c(n2)N(c2cccc(C(C)(C)O)n2)[C@@H]2CC(C)(C)OC[C@]32C)cc1 (single isomer, unassigned) [Example 416] | – | – | 100 to 1000 nM | < 10 nM
34 | Cc1cc(Nc2ncc3c(n2)N(c2cccc(C(C)(C)O)n2)[C@@H]2CC(C)(C)OC[C@]32C)ccc1N1CCN(C)CC1 (single isomer, unassigned) [Example 9] | 100 to 1000 nM | < 10 nM | – | –
35 | CNCc1cccc(N2c3nc(Nc4cnn(C(C)(C)C)c4)ncc3[C@@]3(C)COC(C)(C)C[C@@H]23)n1 (single isomer, unassigned) [Example 48] | < 100 nM | < 10 nM | – | –
36 | CNCc1cccc(N2c3nc(Nc4ccc([C@H]5CCOC5)cc4)ncc3[C@@]3(C)COC(C)(C)C[C@@H]23)n1 (single isomer, unassigned) [Example 40] | < 100 nM | < 10 nM | – | –
